Results from publication PMC4641600, “Novel Activities of Select NSAID R-Enantiomers against Rac1 and Cdc42 GTPases” (PLoS ONE, 2015).

Assays:
H-Ras wt = H-Ras wt (Homo sapiens, UniProt P01112); assay: Dose response, BODIPY-GTP binding; conditions: 10 nM to 100 µM
Procedure: For multiplex analyses of small GTPases, 4 μm diameter glutathione-beads (GSH-beads) distinguished by seven different intensities of red fluorescence were used according to our previously described protocols. The GST-GTPases included the following eight Ras-related small GTPases: Rab2 wt, Rab7 wt, Cdc42 wt, Cdc42Q61L activating mutant, H-Ras wt, H-RasG12V, Rac1 wt and Rac1Q61L activating mutant. Briefly, Prestwick Chemical Library® compounds were tested at 10 μM compound and 1% DMSO final concentrations. After a 10 min pre-incubation with the compound BODIPY- FL-GTP (100 nM final) was added to each well and bead associated fluorescence was measured. Sample analysis was conducted with a HyperCyt® high throughput flow cytometry platform. Flow cytometric light scatter at 488 nm and fluorescence emission at 530 +/− 20 nm (FL1) and 665 +/− 10 nm (FL8) were collected on a Cyan ADP flow cytometer (Beckman Coulter, Fullerton, CA). IDLQuery software was used to determine the compound activity in each well. Gating based on forward scatter (FS) and side scatter (SS) parameters was used to identify singlet bead populations. Gating based on FL8 emission distinguishes the beads coated with different proteins, and the median FL1 fluorescence per bead population were calculated. A compound was considered a “potential active” if the change in BODIPY-FL-GTP binding differed greater than 20% from that measured in DMSO treated controls.
Test compounds identified for follow-up after the primary screen were tested at dilutions ranging from 10 nM to 100 μM final concentration against individual GTPases in multiplex and single-plex assays. Compounds tested in dose response assays were serially diluted 1:3 a total of eight times from a starting concentration of 10 mM giving a 9-point dilution series in DMSO.
bConfirmatory screens entailed dose response assays conducted in a multiplex format with eight GTPases tested as for primary screen. BODIPY-GTP-binding activity was
measured in the presence of 10 nM to 100 µM of each of 11 test compounds (4 primary screen hits and 7 additional NSAIDs considered to have chemical similarity to GTPase
active compounds). GST-GFP coated beads served as a control to detect non-specific dissociation or denaturation caused by compound addition–none of the tested NSAIDs had
any effect on bead-GST-protein binding. EC50 values were determined using Prism to determine dose response fits as shown in Figure 1 of main text; fits have R2 > 0.9. Active
compounds based on same definition used as in primary screena. […]

Cdc42 [1] = molecular target: T1, Cdc42 (Mus musculus, UniProt P60766); assay: GLISA, Swiss 3T3 cells; type: cell-based; conditions: Swiss-3T3; at 300 µM
T1 construct: endogenous in cells; host or cells: Swiss 3T3

[2] = tested on: Rac1 membrane localization; assay: Rac1 immunolocalization, OvCa433 cells; type: cell-based, human
Rab2 = Rab2 (Homo sapiens, UniProt P61019); assay: Dose response, BODIPY-GTP binding; conditions: 10 nM to 100 µM
Rab7 = Rab7 (Homo sapiens, UniProt P51149); assay: Dose response, BODIPY-GTP binding; conditions: 10 nM to 100 µM
[3] = molecular target: Cdc42Q61L activating mutant (Homo sapiens, UniProt P60953, Q61L); assay: Dose response, BODIPY-GTP binding
Cdc42 wt = Cdc42 wt (Homo sapiens, UniProt P60953); assay: Dose response, BODIPY-GTP binding; conditions: 10 nM to 100 µM
Rac1 = molecular target: T2, Rac1 (Mus musculus, UniProt P63001); assay: GLISA, Swiss 3T3 cells; type: cell-based
T2 construct: endogenous in cells; host or cells: Swiss 3T3

GST-Rac1 = GST-Rac1 (Homo sapiens, UniProt P63000); assay: In vitro nucleotide binding assay on individual GTPase (13 µm GSH beads); conditions: GST-Rac1 and GST-Cdc42; BODIPY-GTP 300 nM
[4] = tested on: OvCa429 and OvCa433 cells; assay: Boyden chamber cell migration assay; type: cell-based, human; conditions: Homo sapiens; estimated from limited dose response data; read-out: IC50 migration Rac1/Cdc42 dependent (est)
human COX-1 = molecular target: T3, human COX-1 (Homo sapiens, UniProt P23219); assay: Cyclooxygenase assay (CEREP), PGE2 formation; type: biochemical; conditions: recombinant enzyme, 4 μM arachidonic acid
T3 construct: purchased CEREP Laboratories (contract assay); host or cells: Sf-9

Cdc42 [5] = molecular target: T4, Cdc42 (Homo sapiens, UniProt P60953); assay: G-trap flow cytometric effector binding assay, HeLa cells; type: cell-based
T4 construct: endogenous in cells; host or cells: HeLa
T4 sequence (P60953 whole entry): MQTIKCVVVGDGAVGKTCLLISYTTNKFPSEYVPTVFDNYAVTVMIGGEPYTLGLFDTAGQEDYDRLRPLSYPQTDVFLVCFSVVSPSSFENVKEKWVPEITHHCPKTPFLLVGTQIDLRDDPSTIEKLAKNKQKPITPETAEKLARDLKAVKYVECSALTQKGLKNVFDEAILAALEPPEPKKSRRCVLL

Cdc42Q61L activating mutant, sequence (P60953 whole entry Q61L): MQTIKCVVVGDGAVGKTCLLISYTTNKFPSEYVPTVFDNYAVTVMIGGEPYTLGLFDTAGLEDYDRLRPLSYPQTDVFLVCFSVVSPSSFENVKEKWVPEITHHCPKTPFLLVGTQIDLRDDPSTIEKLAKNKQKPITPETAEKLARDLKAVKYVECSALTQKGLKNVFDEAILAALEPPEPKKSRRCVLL
T1 sequence (P60766 whole entry): as the sequence (P60953 whole entry) above
Cdc42 wt, sequence (P60953 whole entry): as above
T3 sequence (P23219 24-599): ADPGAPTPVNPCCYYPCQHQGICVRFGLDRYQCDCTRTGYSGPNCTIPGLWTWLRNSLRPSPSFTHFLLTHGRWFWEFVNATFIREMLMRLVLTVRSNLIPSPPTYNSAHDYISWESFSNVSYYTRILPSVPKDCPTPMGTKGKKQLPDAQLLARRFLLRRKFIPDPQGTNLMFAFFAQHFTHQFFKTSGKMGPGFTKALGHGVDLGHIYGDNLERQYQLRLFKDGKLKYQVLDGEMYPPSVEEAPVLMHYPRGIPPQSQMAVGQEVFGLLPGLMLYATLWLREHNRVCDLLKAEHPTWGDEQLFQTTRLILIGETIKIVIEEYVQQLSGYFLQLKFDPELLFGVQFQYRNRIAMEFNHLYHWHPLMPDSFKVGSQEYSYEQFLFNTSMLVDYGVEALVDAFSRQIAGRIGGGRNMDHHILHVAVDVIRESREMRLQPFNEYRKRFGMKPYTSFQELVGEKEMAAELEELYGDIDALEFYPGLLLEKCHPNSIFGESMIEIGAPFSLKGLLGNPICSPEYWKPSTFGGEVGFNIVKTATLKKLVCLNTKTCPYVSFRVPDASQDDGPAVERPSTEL
Rab2, sequence (P61019 whole entry, species assumed): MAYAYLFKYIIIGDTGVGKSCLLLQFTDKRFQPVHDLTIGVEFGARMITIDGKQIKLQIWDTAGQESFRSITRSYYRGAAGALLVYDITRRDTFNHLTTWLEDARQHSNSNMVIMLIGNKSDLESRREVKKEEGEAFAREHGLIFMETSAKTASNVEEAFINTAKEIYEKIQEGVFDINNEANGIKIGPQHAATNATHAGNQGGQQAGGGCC
H-Ras wt, sequence (P01112 whole entry): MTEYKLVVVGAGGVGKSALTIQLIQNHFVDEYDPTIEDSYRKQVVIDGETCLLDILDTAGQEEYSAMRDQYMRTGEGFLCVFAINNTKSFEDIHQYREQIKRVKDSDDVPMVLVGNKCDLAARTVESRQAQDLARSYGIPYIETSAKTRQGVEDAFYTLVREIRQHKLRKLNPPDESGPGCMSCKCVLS
Rab7, sequence (P51149 whole entry, species assumed): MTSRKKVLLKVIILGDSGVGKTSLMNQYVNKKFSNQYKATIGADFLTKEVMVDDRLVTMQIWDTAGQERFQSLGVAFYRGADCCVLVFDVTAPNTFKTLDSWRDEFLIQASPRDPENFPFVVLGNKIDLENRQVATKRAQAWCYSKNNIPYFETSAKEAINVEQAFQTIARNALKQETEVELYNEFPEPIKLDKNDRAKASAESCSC

H-Ras wt EC50 (H-Ras wt): inactive | inhibition at 300 µM (Cdc42 [1]): 0% | Rab2 EC50 (Rab2): inactive | Rab7 EC50 (Rab7): inactive | activity against the constitutively active Cdc42 mutant [3]: weak activity | EC50 ([3]; 10 nM to 100 µM, read-out: Cdc42 (act) EC50): 12.3 µM | Cdc42 wt EC50 (Cdc42 wt): inactive | EGF-mediated Rac1 activation (Rac1; 300 μM, 15 min or 1 h (either time point)): no inhibitory effect | inhibition at 300 µM (Rac1; Swiss-3T3, at 300 µM): 0% | inhibition of BODIPY-GTP binding (GST-Rac1): inactive | IC50 [4]: > 300 µM | IC50 (human COX-1): 28 µM | fold lower potency than R-naproxen, Cdc42 (Cdc42 [5]): 3 fold
SMILES: COc1ccc2cc(CC(=O)O)ccc2c1 [6-MNA, 6-methoxy-2-napthalene acetic acid]
Rac1 membrane localization ([2]; 300 μM): no effect | Rac PM Localiz. ([2]; immunofluorescence quantified using ImageJ): 98%
